Source: US11124518B2, “L,2-dihydro-3H-pyrazolo[3,4-D]pyrimidin-3-one analogs” (Recurium IP Holdings, LLC, priority 2017, dated 2021)

What was measured:
Wee1 kinase = Wee1 kinase (Homo sapiens (Human), UniProt P30291); test: Wee1 Binding Assay (FRET); details: Wee1 kinase 2 nM, tracer 178 50 nM, 60 min at RT, read-out: Wee1 Enzymatic IC50
Procedure: Wee 1 kinase was determined by using Flurorescence Resonance Energy Transfer (FRET) assay. […] The plate was shaken for 30 seconds, incubated for 60 min at RT, and recorded on fluorescence plate reader.

SW480 cells = test: SW480 Cellular Proliferation Assay (CellTiter-Glo); type: cell-based; details: Homo sapiens, 96 h, 4 days
Procedure: (§1) Cells were treated with compounds diluted in DMSO and a 10 point 3-fold serial dilutions. Plates were placed in 37° C., 5% CO2 for to incubate for 4 days. Before they were developed by adding 100 μL of CellTiter-Glo reagent (Promega) to the assay plate, plates were shaken briefly for 2 mins and allowed to incubate at RT for 60 mins. The bottom of the plates was pasted with white back seal and luminescence was recorded with Enspire or Envision.

H23 cells = test: H23 Cellular Proliferation Assay (CellTiter-Glo); type: cell-based; details: Homo sapiens, NCI-H23, 96 h, 4 days
Procedure: as §1, with “a 9” for “a 10”, “point 5-fold” for “point 3-fold”, “CO2” for “CO2 for”, “for 10” for “for 60”, “mins. The plates are read with a M5e plate reader according to CellTiter-Glo protocol. The GraphPad Prism software was used to get IC50 values.” for “mins.”

Sequence of Wee1 kinase (P30291 whole entry): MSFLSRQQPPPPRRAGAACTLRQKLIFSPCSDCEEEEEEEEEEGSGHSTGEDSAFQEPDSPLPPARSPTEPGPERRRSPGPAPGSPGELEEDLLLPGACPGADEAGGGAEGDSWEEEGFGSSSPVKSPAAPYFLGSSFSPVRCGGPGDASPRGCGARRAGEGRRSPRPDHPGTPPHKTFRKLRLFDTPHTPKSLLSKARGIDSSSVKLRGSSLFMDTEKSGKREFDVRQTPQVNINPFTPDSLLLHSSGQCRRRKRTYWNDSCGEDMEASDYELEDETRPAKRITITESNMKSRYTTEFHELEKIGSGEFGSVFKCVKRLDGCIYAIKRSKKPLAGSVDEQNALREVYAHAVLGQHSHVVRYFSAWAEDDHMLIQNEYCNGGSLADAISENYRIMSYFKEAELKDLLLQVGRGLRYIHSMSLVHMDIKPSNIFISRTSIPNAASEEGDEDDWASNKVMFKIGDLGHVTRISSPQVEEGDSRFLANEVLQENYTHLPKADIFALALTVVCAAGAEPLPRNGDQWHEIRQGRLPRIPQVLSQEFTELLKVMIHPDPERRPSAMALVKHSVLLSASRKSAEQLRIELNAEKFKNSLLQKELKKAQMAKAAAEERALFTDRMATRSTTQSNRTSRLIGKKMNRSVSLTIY

SMILES	IC50 (Wee1 kinase)	IC50 (SW480 cells)	IC50 (H23 cells)
C=CCn1c(=O)c2cnc(Nc3ccc4c(c3)CN(S(C)(=O)=O)CC4)nc2n1-c1cccc(C(C)(C)O)n1 [Example 9, 2-Allyl-1-(6-(2-hydroxypropan-2-yl)pyridin-2-yl)-6-((2-(methylsulfonyl)-1,2,3,4-tetrahydroisoquinolin-7-yl)amino)-1,2-dihydro-3H-pyrazolo[3,4-d]pyrimidin-3-one]	< 10 nM	100 to 1000 nM	
C=CCn1c(=O)c2cnc(Nc3ccc4c(c3)CNC4)nc2n1-c1cccc(C(C)(C)O)n1 [Example 21, 2-Allyl-1-(6-(2-hydroxypropan-2-yl)pyridin-2-yl)-6-(isoindolin-5-ylamino)-1,2-dihydro-3H-pyrazolo[3,4-d]pyrimidin-3-one hydrogen chloride]	< 10 nM		100 to 1000 nM
C=CCn1c(=O)c2cnc(Nc3ccc4c(c3)CN(C(C)C)CC43CC3)nc2n1-c1cccc(C(C)(C)O)n1 [Example 3, 2-Allyl-1-(6-(2-hydroxypropan-2-yl)pyridin-2-yl)-6-((2′-isopropyl-2′,3′-dihydro-1′H-spiro[cyclopropane-1,4′-isoquinolin]-7′-yl)amino)-1,2-dihydro-3H-pyrazolo[3,4-d]pyrimidin-3-one]	< 10 nM		
C=CCn1c(=O)c2cnc(Nc3ccc4c(n3)CCN(C)C4)nc2n1-c1cccc(C(C)(C)O)n1 [Example 26, 2-Allyl-1-(6-(2-hydroxypropan-2-yl)pyridin-2-yl)-6-((6-methyl-5,6,7,8-tetrahydro-1,6-naphthyridin-2-yl)amino)-1,2-dihydro-3H-pyrazolo[3,4-d]pyrimidin-3-one]	10 to 100 nM		
C=CCn1c(=O)c2cnc(Nc3ccc4c(n3)CN(C)CC4)nc2n1-c1cccc(C(C)(C)O)n1 [Example 24, 2-Allyl-1-(6-(2-hydroxypropan-2-yl)pyridin-2-yl)-6-((7-methyl-5,6,7,8-tetrahydro-1,7-naphthyridin-2-yl)amino)-1,2-dihydro-3H-pyrazolo[3,4-d]pyrimidin-3-one]	10 to 100 nM		
C=CCn1c(=O)c2cnc(Nc3ccc4c(c3)CN(C3COC3)CC4)nc2n1-c1cccc(C(C)(C)O)n1 [Example 14, 2-Allyl-1-(6-(2-hydroxypropan-2-yl)pyridin-2-yl)-6-((2-(oxetan-3-yl)-1,2,3,4-tetrahydroisoquinolin-7-yl)amino)-1,2-dihydro-3H-pyrazolo[3,4-d]pyrimidin-3-one]			100 to 1000 nM
C=CCn1c(=O)c2cnc(Nc3ccc4c(c3)CNCC4(F)F)nc2n1-c1cccc(C(C)(C)O)n1 [Example 28, 2-Allyl-6-((4,4-difluoro-1,2,3,4-tetrahydroisoquinolin-7-yl)amino)-1-(6-(2-hydroxypropan-2-yl)pyridin-2-yl)-1,2-dihydro-3H-pyrazolo[3,4-d]pyrimidin-3-one hydrogen chloride]	< 10 nM		100 to 1000 nM
C=CCn1c(=O)c2cnc(Nc3ccc4c(c3)CCN(C3COC3)C4)nc2n1-c1cccc(C(C)(C)O)n1 [Example 18, 2-Allyl-1-(6-(2-hydroxypropan-2-yl)pyridin-2-yl)-6-((2-(oxetan-3-yl)-1,2,3,4-tetrahydroisoquinolin-6-yl)amino)-1,2-dihydro-3H-pyrazolo[3,4-d]pyrimidin-3-one]	< 10 nM		100 to 1000 nM
C=CCn1c(=O)c2cnc(Nc3ccc4c(c3)CN(C)CC4(F)F)nc2n1-c1cccc(C(C)(C)O)n1 [Example 27, 2-Allyl-6-((4,4-difluoro-2-methyl-1,2,3,4-tetrahydroisoquinolin-7-yl)amino)-1-(6-(2-hydroxypropan-2-yl)pyridin-2-yl)-1,2-dihydro-3H-pyrazolo[3,4-d]pyrimidin-3-one]			> 1000 nM
C=CCn1c(=O)c2cnc(Nc3ccc4c(c3)CN(C(C)=O)CC43CC3)nc2n1-c1cccc(C(C)(C)O)n1 [Example 4, 6-((2′-Acetyl-2′,3′-dihydro-1′H-spiro[cyclopropane-1,4′-isoquinolin]-7′-yl)amino)-2-allyl-1-(6-(2-hydroxypropan-2-yl)pyridin-2-yl)-1,2-dihydro-3H-pyrazolo[3,4-d]pyrimidin-3-one]	< 10 nM		
C=CCn1c(=O)c2cnc(Nc3cnc4c(c3)CN(C)CC4)nc2n1-c1cccc(C(C)(C)O)n1 [Example 25, 2-Allyl-1-(6-(2-hydroxypropan-2-yl)pyridin-2-yl)-6-((6-methyl-5,6,7,8-tetrahydro-1,6-naphthyridin-3-yl)amino)-1,2-dihydro-3H-pyrazolo[3,4-d]pyrimidin-3-one]	< 10 nM		
C=CCn1c(=O)c2cnc(Nc3ccc4c(c3)CN(C)CC43CC3)nc2n1-c1cccc(C(C)(C)O)n1 [Example 1, 2-Allyl-1-(6-(2-hydroxypropan-2-yl)pyridin-2-yl)-6-((2′-methyl-2′,3′-dihydro-1′H-spiro-[cyclopropane-1,4′-isoquinolin]-7′-yl)amino)-1,2-dihydro-3H-pyrazolo[3,4-d]pyrimidin-3-one]		100 to 1000 nM	< 100 nM
C=CCn1c(=O)c2cnc(Nc3ccc4c(c3)CCN(CCO)C4)nc2n1-c1cccc(C(C)(C)O)n1 [Example 17, 2-Allyl-6-((2-(2-hydroxyethyl)-1,2,3,4-tetrahydroisoquinolin-6-yl)amino)-1-(6-(2-hydroxypropan-2-yl)pyridin-2-yl)-1,2-dihydro-3H-pyrazolo[3,4-d]pyrimidin-3-one hydrogen chloride]			100 to 1000 nM

Continued, in another order:

IC50 (Wee1 kinase)	IC50 (SW480 cells)	SMILES	IC50 (H23 cells)
< 10 nM		C=CCn1c(=O)c2cnc(Nc3ccc4c(c3)CN(C)C4)nc2n1-c1cccc(C(C)(C)O)n1 [Example 23, 2-Allyl-1-(6-(2-hydroxypropan-2-yl)pyridin-2-yl)-6-((2-methylisoindolin-5-yl)amino)-1,2-dihydro-3H-pyrazolo[3,4-d]pyrimidin-3-one]	100 to 1000 nM
	100 to 1000 nM	C=CCn1c(=O)c2cnc(Nc3ccc(N4CCN(C)CC4)cc3)nc2n1-c1cccc(C(C)(C)O)n1 [AZD1775, 2-allyl-1-(6-(2-hydroxypropan-2-yl)pyridin-2-yl)-6-(4-(4-methylpiperazin-1-yl)phenylamino)-1,2-dihydropyrazolo[3,4-d]pyrimidin-3-one, reference compound]	100 to 1000 nM
< 10 nM		C=CCn1c(=O)c2cnc(Nc3ccc4c(c3)CN(C(C)C)CC4)nc2n1-c1cccc(C(C)(C)O)n1 [Example 10, 2-Allyl-1-(6-(2-hydroxypropan-2-yl)pyridin-2-yl)-6-((2-isopropyl-1,2,3,4-tetrahydroisoquinolin-7-yl)amino)-1,2-dihydro-3H-pyrazolo[3,4-d]pyrimidin-3-one]	
< 10 nM		C=CCn1c(=O)c2cnc(Nc3ccc4c(c3)CN(CC)CC4)nc2n1-c1cccc(C(C)(C)O)n1 [Example 7, 2-Allyl-6-((2-ethyl-1,2,3,4-tetrahydroisoquinolin-7-yl)amino)-1-(6-(2-hydroxypropan-2-yl)pyridin-2-yl)-1,2-dihydro-3H-pyrazolo[3,4-d]pyrimidin-3-one]	100 to 1000 nM
< 10 nM		C=CCn1c(=O)c2cnc(Nc3ccc4c(c3)[C@H](C)NCC4(C)C)nc2n1-c1cccc(C(C)(C)O)n1 (single isomer, unassigned) [Example 30]	< 100 nM
< 10 nM		C=CCn1c(=O)c2cnc(Nc3ccc4c(c3)[C@@H](C)NCC4(C)C)nc2n1-c1cccc(C(C)(C)O)n1 (single isomer, unassigned) [Example 29]	100 to 1000 nM
